Measured values as given in patent publication US7625887B2, “Receptor agonists” (Takeda Pharmaceutical Company Limited, priority 2003, dated 2009).

Legend:
THP-TGR5 cells = experiment: suppression of LPS induced TNF α secretion in THP-TGR5 cells; type: cell-based, human; conditions: bile acid 50 μM, non-addition: 11 with LPS, 2.7 without LPS
Description: TGR5 high expression cells were established by introducing TGR5 gene into human macrophage cells line THP-1. According to a conventional method, pcDNA-TGR5 incorporating cDNA of human TGR5 in pcDNA3.1 (Invitrogen) was prepared. Then, THP-1 was cultured in a medium (RPMI1640 10% FBS), and pcDNA-TGR5 was introduced thereinto using lipofectamine (Gibco BRL) according to conventional methods. Thereafter, G418 (Gibco BRL) was added to the medium to select resistant strains, and cells line, THP-TGR5 that expresses TGR5 stably and highly was established.
THP-TGR5 thus obtained was diluted to a concentration of 1×10^5/well and cultured overnight in a 96 well plate in the presence of 10^−8M phorbol ester (Wako Pure Chemical Industries, Ltd.). THP-TGR5 after culture was cultured for 1 hr in a medium containing a test compound or a control medium (0.1 ml) free of a test compound, 0.1 ml of a medium containing the same concentration of the test compound or a control medium free of the test compound, each of which containing LPS for induction of TNF α secretion was added (concentration at the time of addition 50 ng/ml) and the mixture was incubated at 37° C. under 5% CO2 for 14 hrs. The culture supernatant was collected and the TNF α content was measured with the growth suppressing effect on the TNF sensitive cell line L929 (RIKEN Institute) as an index.
L929 cells were seeded in a 96 well plate at 1.2×10^4/well and incubated overnight at 37° C. under 5% CO2. The obtained culture product was cultured overnight in a medium (phenol red free Dulbecco's Modified Eagle Medium (Invitrogen) supplemented with 10% fetal bovine serum (Invitrogen), 100 U/ml penicillin and 100 μg/ml streptomycin), which contained the aforementioned THP-TGR5-containing culture supernatant and 2 μg/ml Actinomycin D (Wako Pure Chemical Industries, Ltd.). The TNF α content was determined by measuring the growth of the L929 cells in the obtained culture product using a Cell Counting Kit-8 (Wako Pure Chemical Industries, Ltd.). As the standard sample, human recombinant TNF α (Genzyme) was used.

[1] = tested on: rat intestine primary culture cells; experiment: GLP-1 secretion from rat intestine primary culture cells; type: cell-based; conditions: bile acid 100 μM, 150 min
Description: Terminal ileum and colon mucous membrane were removed from rat (Wistar, male, Charles River Japan, Inc.) and subjected to an enzyme treatment to give a cell dispersion according to the following method.
(§1) The enzyme solution used was obtained by dissolving 5 mg/ml Collagenase (Sigma), 5 mg/ml Hyaluronidase (Sigma) and 0.5 mg/ml DNaseI (Sigma) in a medium. The medium used was Dulbecco's Modified Eagle Medium (DMEM, Invitrogen) supplemented with 4.5 g/l Glucose, 5% FBS (Invitrogen), 100 units/ml Penicillin (Invitrogen), 100 μg/ml Streptomycin (Invitrogen), 50 μg/ml Gentamicin (Invitrogen) and 20 mM Hepes (pH 7.3). After digestion by the enzyme solution at 37° C., the tissue sections were prepared into dispersed cells by passing through a pipette 7 times and the cells were collected. The collected cells were washed with a buffer (incubation buffer) obtained by adding 5.5 mM Glucose and 0.1% BSA to a modified Krebs-Ringer bicarbonate buffer (KRBH, 116 mM NaCl, 4.7 mM KCl, 1.2 mM KH2PO4, 1.2 mM MgSO4, 2.5 mM CaCl2, 25 mM NaHCO3, 24 mM HEPES, pH 7.3), and preincubated at 37° C. under 5% CO2 for 30 min. 0.1 μM Phorbol ester (Wako), 1% DPPIV inhibitor (Linco) and a test compound were added to the above-mentioned incubation buffer, and the obtained buffer was added to the cells after the aforementioned preincubation and incubated for 150 min. The culture supernatant was collected and cryopreserved. The concentration of GLP-1 released in the culture supernatant was measured using an ELISA kit (Linco).

[2] = tested on: guinea pig peripheral blood mononuclear cells; experiment: IL-6 secretion in LPS-stimulated guinea pig peripheral blood mononuclear cells; type: cell-based; conditions: 16 hrs, bile acid 50 μM; non-addition: 520 with LPS, 32 without
Description: The peripheral blood was taken from guinea pig, and mononuclear cell fraction was obtained by a density separation method using Ficoll-Paque PLUS (Amersham Pharmacia). The fraction at a concentration of 1×10^5/well was cultured for 16 hrs in the presence of […] LPS in a 96-well plate upon addition of bile acid or a test compound. The culture supernatant was collected and TNF and IL-6 in the supernatant were quantitated.
The quantitation of IL-6 in the culture supernatant was performed using IL-6 dependent cell line 7TD1 (RIKEN Institute) with its growth promoting action as an index. First, 7TD1 cells were suspended in a basic medium (RPMI1640 (Invitrogen) supplemented with 1% non-essential amino acid (Invitrogen) and 55 μM 2-mercaptoethanol (Invitrogen)) and seeded in a 96-well plate at a concentration of 2×10^3/well. Immediately after seeding, peripheral blood mononuclear cell culture supernatant diluted with a dilution medium (the above-mentioned basic medium supplemented with 10% FBS) was added and the cells were cultured for 2 days. The IL-6 content was determined by measuring the growth of the 7TD1 cells in the obtained culture product using a CellTiter-Glo (Promega). As the standard sample, human recombinant IL-6 (Genzyme) was used.

[3] = tested on: guinea pig intestine primary culture cells; experiment: GLP-1 secretion from guinea pig intestine primary culture cells; type: cell-based; conditions: bile acid 50 μM, 90 min
Description: Colon mucous membrane of guinea pig (Hartley, male, Charles River Japan, Inc.) was removed and subjected to an enzyme treatment to give a cell dispersion according to the following method.
as §1, with “a pipette 4 times and” for “a pipette 7 times and”, “KH2PO4, 1.2 MM MgSO4, 2.5” for “KH2PO4, 1.2 mM MgSO4, 2.5”, “incubated for 90 min. The” for “incubated for 150 min. The”

With `C[C@H](CCC(=O)NCCS(=O)(=O)O)[C@H]1CC[C@H]2[C@@H]3CC[C@@H]4C[C@H](O)CC[C@]4(C)[C@H]3CC[C@]12C` [TLCA, taurolithocholic acid, reference compound] the “TNF α” value (THP-TGR5 cells) was 0.22 ng/mL, the “GLP-1 (% relative to non-addition)” value [1] was 290 % relative to non-addition and the “IL-6” value [2] was 260 pg/mL. For the same compound, the “GLP-1 (% relative to non-addition)” value [3] was 400 % relative to non-addition.
